The IC50 is the midpoint of a concentration-inhibition curve.

The record followed here is patent US12247011B2, “Selective inhibitors of NLRP3 inflammasome” (NodThera Limited, priority 2017, dated 2025).

This test deals with IL-1β release upon NLRP3 activation in peripheral blood mononuclear cells (PBMC). The test can be described thus: PBMC IC50 Determination Assay. The class given is cell-based. The conditions noted are these: Homo sapiens; LPS-primed PBMC, 30 min compound, stimulated with ATP (5 mM) or nigericin (10 μM) for 1 h; IL-1β ELISA; read-out: PBMC IC50. The protocol:
PBMC IC50 Determination Assay
The compounds of the present disclosure were tested for their inhibitory activity against IL-1β release upon NLRP3 activation in peripheral blood mononuclear cells (PBMC).
Isolated cells were seeded into the wells of a 96-well plate and incubated for 3 h with lipopolysaccharide (LPS). Following medium exchange, the compounds of the present disclosure were added (a single compound per well) and the cells were incubated for 30 min. Next, the cells were stimulated either with ATP (5 mM) or nigericin (10 μM) for 1 h and the cell culture media from the wells were collected for further analysis.
The release of IL-1β into the media was determined by a quantitative detection of IL-1β in the media using an IL-1β enzyme-linked immunosorbent assay (ELISA) Ready-SET-Go!, eBioscience cat. […] Subsequently, plates were blocked with blocking buffer for 1 h at room temperature (rt) and after washing with a buffer (PBS with 0.05% Tween-20) incubated with protein standard and culture media. […] Plates were washed and incubated with HRP-streptavidin for 30 min at rt and washed again. The signal was developed after addition of 3,3,5,5-tetramethylbenzidine-peroxidase (TMB) until colour appeared and the reaction was stopped by 2 M H2SO4. A microplate spectrophotometer (BioTek) was used to detect signals with 450 nm. The detection range of IL-1β ELISA was 2-150 ng/ml.
(In general: An ELISA detects its analyte on a solid surface through an enzyme-linked reagent.)
Take `CC(C)OC(=O)C(Cc1ncccn1)OC(=O)N[C@H]1CCCC[C@@H]1C` (relative stereo) [Compound 129, Propan-2-yl 2-{[(trans-2-methylcyclohexyl)carbamoyl]oxy}-3-(pyrimidin-2-yl)propanoate]: the IC50 fell in the range of 1000 to 10000 nM.

Regarding `CCOC(=O)COC(=O)Nc1c(F)cccc1F` [Compound 2, Ethyl 2-{[(2,6-difluorophenyl)carbamoyl]oxy}acetate], the IC50 lay within 1000 to 10000 nM. In the case of `CCOC(=O)COC(=O)Nc1c(Cl)cccc1Cl` [Compound 3, Ethyl 2-{[(2,6-dichlorophenyl)carbamoyl]oxy}acetate], the IC50 was 100 to 1000 nM. Take `CCOC(=O)COC(=O)Nc1cccc2ccccc12` [Compound 4, Ethyl 2-{[(naphthalen-1-yl)carbamoyl]oxy}acetate]: the IC50 lay in the range of 1000 to 10000 nM.

As for `CCOC(=O)COC(=O)Nc1cccc2c1OC(C)(C)C2` [Compound 5, Ethyl 2-{[(2,2-dimethyl-2,3-dihydro-1-benzofuran-7-yl)carbamoyl]oxy}acetate], the IC50 is above 10000 nM.

In the case of `CCOC(=O)C(COC)OC(=O)Nc1c2c(cc3c1CCC3)CCC2` (stereo not shown) [Compound 6, Ethyl 2-{[(1,2,3,5,6,7-hexahydro-s-indacen-4-yl)carbamoyl]oxy}-3-methoxypropanoate], the IC50 was 10 to 100 nM. For the compound `CCOC(=O)COC(=O)Nc1cc(C(F)(F)F)ccc1F` [Compound 7, Ethyl 2-({[2-fluoro-5-(trifluoromethyl)phenyl]carbamoyl}oxy)acetate], the IC50 is 1000 to 10000 nM.

Turning to `CCOC(=O)COC(=O)Nc1c(C)cccc1C` [Compound 8, Ethyl 2-{[(2,6-dimethylphenyl)carbamoyl]oxy}acetate], the IC50 was 100 to 1000 nM. Take `CCOC(=O)COC(=O)Nc1c(CC)cccc1CC` [Compound 9, Ethyl 2-{[(2,6-diethylphenyl)carbamoyl]oxy}acetate]: the IC50 was in the range of 100 to 1000 nM. Under `CCOC(=O)COC(=O)Nc1c(C)cccc1Cl` [Compound 10] stands 1000 to 10000 nM; under `CCOC(=O)COC(=O)Nc1ccccc1C#N` [Compound 11, Ethyl 2-{[(2-cyanophenyl)carbamoyl]oxy}acetate], 1000 to 10000 nM.

`CCOC(=O)C(Cc1cccnc1)OC(=O)Nc1c2c(cc3c1CCC3)CCC2` (stereo not shown) [Compound 12, Ethyl 2-{[(1,2,3,5,6,7-hexahydro-s-indacen-4-yl)carbamoyl]oxy}-3-(pyridin-3-yl)propanoate]: the IC50 was in the range of 10 to 100 nM.

`CCOC(=O)COC(=O)Nc1ccccc1C(C)(C)C` [Compound 13, Ethyl 2-{[(2-tert-butylphenyl)carbamoyl]oxy}acetate]: the IC50 was in the range of 1000 to 10000 nM. Turning to `CCOC(=O)COC(=O)Nc1c(C)cc(C)cc1C` [Compound 14, Ethyl 2-((mesitylcarbamoyl)oxy)acetate], the IC50 was in the range of 1000 to 10000 nM. In the case of `CCOC(=O)COC(=O)Nc1ccccc1C(C)C` [Compound 15, Ethyl 2-(((2-isopropylphenyl)carbamoyl)oxy)acetate], the IC50 was 1000 to 10000 nM. Take `CCOC(=O)COC(=O)Nc1c(C)cccc1CC` [Compound 16, Ethyl 2-(((2-ethyl-6-methylphenyl)carbamoyl)oxy)acetate]: the IC50 is 100 to 1000 nM.

As to `CCOC(=O)C(Cc1ccccc1)OC(=O)Nc1c2c(cc3c1CCC3)CCC2` (stereo not shown) [Compound 17, Ethyl 2-(((1,2,3,5,6,7-hexahydro-s-indacen-4-yl)carbamoyl)oxy)-3-phenylpropanoate], the IC50 was in the range of 100 to 1000 nM.

In the case of `CCOC(=O)C(Cc1ccccn1)OC(=O)Nc1c2c(cc3c1CCC3)CCC2` (stereo not shown) [Compound 18, Ethyl 2-(((1,2,3,5,6,7-hexahydro-s-indacen-4-yl)carbamoyl)oxy)-3-(pyridin-2-yl)propanoate], the IC50 lay in the range of 100 to 1000 nM. Under `CCOC(=O)[C@@H](C)OC(=O)Nc1c2c(cc3c1CCC3)CCC2` [Compound 19, Ethyl (2R)-2-{[(1,2,3,5,6,7-hexahydro-s-indacen-4-yl)carbamoyl]oxy}propanoate] stands 1000 to 10000 nM.
